Earlier results on 9 compounds are cited in US8273362B2, “Ophthalmic emulsions containing prostaglandins” (Novagali Pharma S.A., priority 2004, dated 2012).

For series [1] the following is noted: at 0.3% w/v.
The conditions of series [2]: ophthalmic preparations.

With `CCCCC[C@H](O)/C=C/[C@H]1[C@H](O)CC(=O)[C@H]1C/C=C\CCCC(=O)O` [8-isoprostaglandinE2], the Solubility in water entry was “almost insoluble in water”.
As for `CCNC(=O)CCC/C=C\C[C@@H]1[C@@H](/C=C/[C@@H](O)CCc2ccccc2)[C@H](O)C[C@@H]1O` [Bimatoprost, bimatoprost], the Solubility in water result is on record as “almost insoluble in water”.
With `CC(C)OC(=O)CCC/C=C\C[C@@H]1[C@@H](CC[C@@H](O)CCc2ccccc2)[C@H](O)C[C@@H]1O` [Latanoprost, latanoprost], the Solubility in water result is “almost insoluble in water”.
Regarding `CC(C)OC(=O)CCC/C=C\C[C@@H]1[C@@H](/C=C/[C@@H](O)COc2cccc(C(F)(F)F)c2)[C@H](O)C[C@@H]1O` [Travoprost, travoprost], the Solubility in water result was “almost insoluble in water”.
As to `CCCCCCCC/C=C\CCCCCCCCN` [oleylamine], the “Safety for ocular administration” value in series [1] is “safe”.
In the case of `CCCCCCCCCCCCCCCCCCN` [stearylamine], in series [1], the “Safety for ocular administration” value is “safe”.
With `CC(C)OC(=O)CCC/C=C\C[C@@H]1[C@@H](/C=C/C(F)(F)COc2ccccc2)[C@H](O)C[C@@H]1O` [tafluprost], the Solubility in water result was “almost insoluble in water”.
Consider `CCCCCCCC(=O)CC[C@@H]1[C@@H](C/C=C\CCCC(=O)OC(C)C)[C@@H](O)C[C@H]1O` [unoprostone isopropyl], for which the Solubility in water result is on record as “almost insoluble in water”.
Consider benzalkonium chloride [BAK], for which, in series [2], the “Toxicity of long term use” value is reported as “important toxicity”.
